Consider 15 compounds from patent publication US5399785A, “Tyrosinase activity inhibitor” (Nippon Paint Co., Ltd., priority 1992, dated 1995).

System in one data set: not given
Test: not given
As to conditions: prior-art statement, no test described; cited from earlier work.
In the case of `OC[C@H]1O[C@@H](Oc2ccc(O)cc2)[C@H](O)[C@@H](O)[C@@H]1O` [arbutin], the toxicity entry was “has toxicity”.

For a further data set, the target named is tyrosinase (Sigma Co.). In words: Measurement of tyrosinase activity inhibition (L-DOPA substrate, absorbance at 417 nm). It counts as biochemical. The note with it: substrate 2 mM L-DOPA, phosphate-potassium buffer pH 6.8, tyrosinase 0.5 mg/ml, absorbance 417 nm; read-out: IC50, concentration of tyrosinase activity inhibitor when the tyrosinase activity inhibition (%) is 50%. The protocol: The measurement was conducted by the following method.
The reaction reagent used are as follows:
Substrate: 2 mM L-DOPA (Wako Junyaku Co.)
Buffer: 0.1 mM phosphate-potassium solution (pH 6.8)
Inhibitor: 1% solution of the compound of the formula (I), 4-ethylresorcinol, compound of the formula (II), 5-methylresorcinol and compound of the formula (III), 6,6'-di-n-propyl-2,2',4,4'-tetrahydroxydiphenylmethane
Enzyme: tyrosinase (Sigma Co.), 0.5 mg/ml
(2) Measurement of tyrosinase activity inhibition %
In the case of measuring tyrosinase activity inhibition %, a sample solution (No.1 to No.3) was prepared in a spectrophotometric cell (1 ml), by mixing each ingredient in the following formulation shown in Table 1. […]
Formulation of sample solution (ml)
An enzyme solution (0.20 ml) was added to the cell. Three minutes later, the measurement of temporal changes of an absorbance (417 nm) by means of a spectrophotometer had started. The inhibition % was calculated based on the following equation:
Inhibition %=[1-(Ab.3-Ab.1/Ab.2-Ab.1)]×100
`CCCc1cc(O)cc(O)c1Cc1c(O)cc(O)cc1CCC` [Example 3, 6,6'-di-n-propyl-2,2',4,4'-tetrahydroxydiphenylmethane]: the IC50 turned out to be 25 µM.

For `CCc1ccc(O)cc1O` [drawing 4 Ethyl, 4-ethylresorcinol], the IC50 worked out at 2 µM.

On to `Cc1ccc(O)cc1O` [drawing 4 Methyl], for which the IC50 was found to be 8 µM.

Regarding `CCCCCCCc1ccc(O)cc1O` [drawing 4 n-Heptyl], the IC50 was 0.7 µM.

As for `CCCCCCCCCc1ccc(O)cc1O` [drawing 4 n-Nonyl], the IC50 was 0.9 µM.

For the compound `CCCCCc1ccc(O)cc1O` [drawing 4 n-Pentyl], the IC50 was found to be 0.8 µM.

As for `CCCc1ccc(O)cc1O` [drawing 4 n-Propyl], the IC50 was determined as 0.9 µM.

For `CCc1cc(O)cc(O)c1` [drawing 5 Ethyl], the IC50 came out at 700 µM.

Consider `Cc1cc(O)cc(O)c1` [drawing 5 Methyl, 5-methylresorcinol], for which the IC50 amounted to 5000 µM.

Regarding `CCCCCCCc1cc(O)cc(O)c1` [drawing 5 n-Heptyl], the IC50 amounted to 200 µM.

`CCCCCCCCCc1cc(O)cc(O)c1` [drawing 5 n-Nonyl]: the IC50 is 200 µM.

`CCCCCc1cc(O)cc(O)c1` [drawing 5 n-Pentyl]: the IC50 was determined as 200 µM.

With `CCCc1cc(O)cc(O)c1` [drawing 5 n-Propyl], the IC50 was 500 µM.

Another data set concerns tyrosinase.
Test: not given
As to conditions: as described in Japanese Patent Kokai No. 4-169515; cited from earlier work.
Take `NC[C@H]1CC[C@H](C(=O)O)CC1` [tranexamic acid]: the “tyrosinase activity inhibition effect” value was “low tyrosinase activity inhibition effect”.
